Series [1] is described as follows: Single dose pharmacokinetics (PK) study in female BALB/c mice. The class given is in vivo, mouse. Particulars: female, BALB/c, mouse, plasma, female BALB/c mice. As for the experimental part: The purpose of this study was to determine the pharmacokinetics of selected compounds following single intravenous bolus or oral gavage administration in female BALB/c mice. Briefly, two groups of female BALB/c mice (available from Shanghai Lingchang Biotechnology Co., Ltd) (N=3/group) were treated with a single dose of compound intravenously at 3 mg/kg (IV) or orally at 30 mg/kg (PO). Blood samples were collected at 5 min (only for IV), […], 30 min, 1 h, 2 h, 4 h, 7 h and 24 h post-dose. Blood samples were placed on ice until centrifugation to obtain plasma samples. The concentration of compound in plasma samples was determined using LC-MS/MS method. The pharmacokinetic parameters were calculated by non-compartmental analysis.

Series [2] relates to human hepatocytes. Briefly: Human hepatocyte stability assay. It is filed as in vitro ADME. Particulars: 1 μM compound, human hepatocytes 1×10^6 cells/mL. As for the experimental part: The hepatocyte stability assay measures the rate of disappearance of a compound from incubations with cryopreserved suspension hepatocytes from human. Positive controls, including Midazolam, Raloxifene and Dextromethorphan, are included in every experiment. Incubations consist of 1 μM tested compound and suspension of human hepatocytes (1×10^6 cells/mL) in supplemented Williams' E Medium with 10% FBS and 0.5% Penicillin-streptomycin. The hepatocyte suspension was incubated with intermittent shaking 900 rpm at 37° C., in a 5% CO2 incubator. The reaction was stopped by adding methanol containing internal standard (2 μM Tolbutamide) at 2, 10, 20, 40, 60 and 120 minutes after compound addition, depletion of the parent compound was monitored by LC-MS/MS analysis.

Series [3] deals with KRAS G12V-BRAF complex (Homo sapiens (Human), UniProt P01116+P62937, G12V). Briefly: KRAS G12V-BRAF with CYPA interaction assay (TR-FRET, selectivity test, Example 132). The class given is biochemical. As for the experimental part:
(§1) In this example, TR-FRET was used to measure the compound or compound-CYPA dependent disruption of the KRAS G12V-BRAF complex to assess inhibition efficacy. The IC50 ratio between WT KRAS/HRAS/NRAS and KRAS G12V mutant was calculated as selective index, which indicated tolerability and safety profile. Disruption of WT KRAS/HRAS/NRAS-BRAF complex by compounds was detected respectively. In assay buffer containing 25 mM HEPES (PH-7.4,4-(2-hydroxyethyl)-1-piperazineethanesulfonic acid, Thermo, 15630080), 0.002% Tween20, 0.1% BSA, 100 mM NaCl, 5 mM MgCl2, 10 μM GMPPNP (Guanosine 5′-[β,γ-imido]triphosphate trisodium salt hydrate, Sigma, G0635), tagless CYPA and GMPPNP loaded 6His-RAS proteins, and GST-BRAF^RBD were mixed in a well of a 384-well assay plate at final concentrations of 50 nM, 6.25 nM and 1 nM, respectively. Compound was present in plate wells as a 16-point 3-fold dilution series starting at a final concentration of 10 μM and incubated for 3 hours. A mixture of MAb Anti-6His-XL665 (Cisbio, 61HISXLB) and Mab anti-GST-TB cryptate (Cisbio, 61GSTTLB) was then added at a final concentration of 6.67 nM and 0.21 nM, respectively, and the plate was incubated for an additional 1.5 hours. TR-FRET signal was read on a PHERstar FSX microplate reader (Ex320 nm, Em 665/615 nm). Compounds that facilitate disruption of the RAS-BRAF complex were identified as those eliciting a decrease in the TR-FRET ratio relative to DMSO control wells.

For series [4], the target named is WT KRAS-BRAF complex (Homo sapiens (Human), UniProt P01116+P62937). The experiment in a line: WT KRAS-BRAF with CYPA interaction assay (TR-FRET). It is filed as biochemical. Particulars: WT KRAS. The procedure:
as §1

The target in series [5] is WT HRAS-BRAF complex (Homo sapiens (Human), UniProt P01112+P62937). The experiment in a line: WT HRAS-BRAF with CYPA interaction assay (TR-FRET). As to conditions: WT HRAS. It is filed as biochemical. As for the experimental part: as §1
WT HRAS-BRAF complex, sequence (P01112 whole entry, looked up): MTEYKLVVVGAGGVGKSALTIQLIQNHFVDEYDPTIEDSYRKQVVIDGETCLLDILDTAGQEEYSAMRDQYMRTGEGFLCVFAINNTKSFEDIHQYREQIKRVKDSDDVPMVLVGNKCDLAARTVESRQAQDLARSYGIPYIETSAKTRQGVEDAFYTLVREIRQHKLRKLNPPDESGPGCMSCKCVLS
WT HRAS-BRAF complex, sequence (P62937 whole entry, looked up): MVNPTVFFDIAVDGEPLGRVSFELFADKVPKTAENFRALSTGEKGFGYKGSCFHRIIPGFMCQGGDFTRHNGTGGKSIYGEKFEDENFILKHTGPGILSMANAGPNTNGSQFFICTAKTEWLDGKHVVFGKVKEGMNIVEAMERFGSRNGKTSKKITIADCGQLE
Series [6] concerns the target WT NRAS-BRAF complex (Homo sapiens (Human), UniProt P01111+P62937). The experiment in a line: WT NRAS-BRAF with CYPA interaction assay (TR-FRET). It is filed as biochemical. As to conditions: WT NRAS. As for the experimental part: as §1
For series [7], the target named is hERG potassium channel (Homo sapiens (Human), UniProt Q12809). Briefly: hERG potassium channel assay (manual patch clamp, CHO cells). Particulars: 34° C., manual patch, CHO cells. It is filed as cell-based. The procedure: The purpose of the test was to screen compounds for the activity on hERG channels as a non-clinical cardiac safety evaluation.
hERG potassium channel, sequence (Q12809 whole entry): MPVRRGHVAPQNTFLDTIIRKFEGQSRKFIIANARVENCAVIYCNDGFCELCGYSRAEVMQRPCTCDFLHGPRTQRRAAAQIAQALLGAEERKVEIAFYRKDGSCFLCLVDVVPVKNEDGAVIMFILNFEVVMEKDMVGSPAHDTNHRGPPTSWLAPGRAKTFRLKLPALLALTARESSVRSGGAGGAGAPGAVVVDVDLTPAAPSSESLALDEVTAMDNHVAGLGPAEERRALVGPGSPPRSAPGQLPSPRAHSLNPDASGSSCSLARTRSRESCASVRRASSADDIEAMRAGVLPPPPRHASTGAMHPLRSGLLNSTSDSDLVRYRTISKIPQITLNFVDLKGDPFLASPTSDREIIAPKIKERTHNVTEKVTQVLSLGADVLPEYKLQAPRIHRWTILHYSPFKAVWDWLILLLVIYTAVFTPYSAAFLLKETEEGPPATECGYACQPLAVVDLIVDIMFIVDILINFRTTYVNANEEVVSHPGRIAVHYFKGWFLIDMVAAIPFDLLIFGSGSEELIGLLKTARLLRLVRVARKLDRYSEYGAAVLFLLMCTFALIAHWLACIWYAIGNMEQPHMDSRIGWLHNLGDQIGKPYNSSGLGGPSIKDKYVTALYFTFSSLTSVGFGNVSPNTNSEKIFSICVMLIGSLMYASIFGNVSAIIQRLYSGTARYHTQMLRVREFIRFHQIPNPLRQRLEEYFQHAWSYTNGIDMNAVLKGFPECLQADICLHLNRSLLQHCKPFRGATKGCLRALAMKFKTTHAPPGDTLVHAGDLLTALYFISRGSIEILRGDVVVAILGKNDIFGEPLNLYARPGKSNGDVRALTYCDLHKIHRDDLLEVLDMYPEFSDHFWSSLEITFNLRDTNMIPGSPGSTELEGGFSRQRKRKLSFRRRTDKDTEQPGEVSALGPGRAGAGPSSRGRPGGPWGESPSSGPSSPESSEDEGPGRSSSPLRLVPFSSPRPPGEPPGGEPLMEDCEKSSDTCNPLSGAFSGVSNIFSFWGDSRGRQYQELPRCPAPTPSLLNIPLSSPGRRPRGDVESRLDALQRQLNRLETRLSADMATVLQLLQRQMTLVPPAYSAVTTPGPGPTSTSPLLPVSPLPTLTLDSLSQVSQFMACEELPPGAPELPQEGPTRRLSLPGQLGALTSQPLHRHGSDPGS
Advanced hERG experiments were performed at near-physiological temperature (34° C.) by HEKA EPC10 manual patch system (heka elektronik, EPC10 amplifier). The CHO cells (B′SYS GmbH) stably transfected hERG channel were initially held at −80 mV, depolarized to voltages between −40 mV (100 ms) to 20 mV (500 ms) to activate the hERG outward currents, and then repolarized to −40 mV (500 ms) to record the hERG tail currents, with an interpulse interval of 15s. The recording environment included: Extracellular solution (in mM): 150 NaCl, 4 KCl, 1.2 CaCl2), 1 MgCl2 and 10 HEPES; pH adjusted to 7.2-7.4 with 5 M NaOH; Intracellular solution (in mM): 125 KCl, 10 NaCl, 5 EGTA, 10 HEPES, 0.1 Na2GTP and 5 MgATP; pH adjusted to 7.2 with 1 M KOH. Current inhibitions in the presence of more than 4 concentrations in quadruplicate were used to fit hERG IC50 by Graphpad prism V8.0.

WT NRAS-BRAF complex, sequence (P01111 whole entry, looked up): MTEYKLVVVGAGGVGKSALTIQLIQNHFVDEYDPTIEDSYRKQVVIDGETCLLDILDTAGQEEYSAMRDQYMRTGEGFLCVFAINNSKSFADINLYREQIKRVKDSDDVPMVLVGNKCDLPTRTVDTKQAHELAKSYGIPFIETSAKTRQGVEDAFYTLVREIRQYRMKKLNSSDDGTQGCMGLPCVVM
WT NRAS-BRAF complex, sequence (P62937 whole entry, looked up): as the sequence (P62937 whole entry, looked up) above
WT KRAS-BRAF complex, sequence (P01116-2 whole entry, looked up): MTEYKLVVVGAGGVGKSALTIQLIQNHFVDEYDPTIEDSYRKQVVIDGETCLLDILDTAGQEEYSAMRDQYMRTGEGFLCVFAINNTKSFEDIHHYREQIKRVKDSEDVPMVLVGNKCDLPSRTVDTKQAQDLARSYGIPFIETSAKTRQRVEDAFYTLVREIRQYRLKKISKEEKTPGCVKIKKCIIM
WT KRAS-BRAF complex, sequence (P62937 whole entry, looked up): as the sequence (P62937 whole entry, looked up) above
KRAS G12V-BRAF complex, sequence (P01116-2 other isoform, or with tags, fused parts or gaps G12V): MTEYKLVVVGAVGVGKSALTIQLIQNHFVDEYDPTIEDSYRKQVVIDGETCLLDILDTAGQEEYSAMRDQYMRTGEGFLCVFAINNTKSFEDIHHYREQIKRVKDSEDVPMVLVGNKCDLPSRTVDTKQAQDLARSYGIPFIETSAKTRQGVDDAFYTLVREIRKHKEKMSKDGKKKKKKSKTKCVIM
KRAS G12V-BRAF complex, sequence (P62937 whole entry): as the sequence (P62937 whole entry, looked up) above

As to `CCn1c(-c2cc(N3CCN(C)CC3)cnc2[C@H](C)OC)c2c3cc(ccc31)-c1csc(n1)C[C@H](NC(=O)[C@H]1[C@H](C)[C@@H]1C)C(=O)N1CCC[C@H](N1)C(=O)OCC(C)(C)C2` [Example A252, reference compound], the clearance in series [1] (iv, 3 mg/kg) was 37.8 mL/min/kg. The molecule further gave an AUC(0-t) in series [1] (po, 30 mg/kg) of 14600 ng·h/mL. Moreover, the Cmax in series [1] (po, 30 mg/kg, po, read-out: Cmax) came out at 2440 ng/mL. For the same molecule, in series [2], the “Hepatic clearance (Human)” value stood at 9.2 mL/min/kg. Further, the concentration for half-maximal inhibition (IC50) in series [3] amounted to 9 nM; in series [4], 18 nM; in series [5], 23 nM; in series [6], 19 nM; in series [7] it was 11000 nM. Further, the IC20 in series [7] (human, CHO cells stably transfected with hERG channel) came to 3000 nM.
